According to patent US4966907A, “6-substituted 5-hydroxy-2,3-dihydrobenzofurans as inhibitors of leukotriene biosynthesis” (Merck & Co., Inc., priority 1988, dated 1990):

Test system: LTB4 production in isolated human polymorphonuclear leucocytes (PMN)
Test: inhibition of LTB4 production in isolated human polymorphonuclear leukocytes (PMN), A23187-stimulated, radioimmunoassay
Format: cell-based
Conditions: Homo sapiens, Leucocyte, 5 min; calcium ionophore A23187 10 μM, 5 min at 37° C., 2.5×10^5 cells; read-out: Human Polymorphonuclear Leucocyte Activity IC50
Source text: A. Preparation of Human PMN
Human blood is obtained by antecubital venepuncture from consenting volunteers who denied having taken medication within the previous 7 days. The blood is immediately added to 10% (v/v) trisodium citrate (0.13M) or 5% (v/v) sodium heparin (1000 IU/mL). PMNs are isolated from anticoagulated blood by dextran sedimentation and centrifugation through Ficoll Hypaque (specific gravity 1.077), essentially as described by Boyum. (Boyum, A., Scand. J. Clin. Lab. Invest 1968, 21 (Supp 97), 77). Contaminating erythrocytes are removed by lysis following exposure to ammonium chloride (0.16M) in Tris buffer (pH 7.65), and the PMNs resuspended at 5×10^5 cells/mL in HEPES (15 mM) buffered Hanks balanced salt solution containing Ca^2+ (1.4 mM) and Mg^2+ (0.7 mM), pH 7.4. Viability is assessed by Trypan blue exclusion and is typically greater than 98%.
B. Generation and Radiommumoassay of LTB4
PMNs 0.5 mL; 2.5×10^5 cells) are placed in plastic tubes and incubated (37° C., 2 min) with test compounds at the desired concentration or vehicle control (DMSO, final concentration 0.2%). The synthesis of leukotriene B4 (LTB4) is initiated by the addition of calcium ionophore A23187 (final concentration 10 μM) or vehicle on control samples and allowed to proceed for 5 minutes at 37° C. The reactions are then terminated by the addition of cold methanol (0.25 mL) and samples of the entire PMN reaction mixture are removed for radiommunoassay of LTB4.
Samples (50 μl) of authentic LTB4 of known concentration in radiommunoassay buffer (RIA) buffer (potassium phosphate 1 mM; disodium EDTA 0.1 mM; Thimerosal 0.025 mM; gelatin 0.1%, pH 7.3) or PMN reaction mixture diluted 1:1 with RIA buffer are added to reaction tubes.
Thereafter [3H]LTB4 (10 nCu in 100 μl RIA buffer) and LTB4 antiserum (100 μL of a 1:3000 dilution in RIA buffer) are added and the tubes vortexed. Reactants are allowed to equilibrate by incubation overnight at 4° C. To separate antibody bound from free LTB4, aliquots (50 μL) of activated charcoal (3% activated charcoal in RIA buffer containing 0.25% Dextran T-70) were added, the tubes vortexed, and allowed to stand at room temperature for 10 minutes prior to centrifugation (1500×g; 10 min; 4° C.). The supernatents containing antibody-bound LTB4 are decanted into vials and Aquasol 2 (4 mL) is added. Radioactivity is quantified by liquid scintillation spectrometry. […] The specificity of the antiserium and the sensitivity of the procedure have been described in detail elsewhere. (Rokach, J.; Hayes, E. C.; Girard, Y.; Lombardo. D. L.; Maycock, A. L.; Rosenthal, A. S.; Young, R. N.; Zamboni, R.; Zweerink, H. J. Prostaglandins Leukotrienes and Medicine 1984, 13, 21). The amount of LTB4 produced in test and control (approx. 20 ng/10^6 cells) samples are then calculated. Inhibitory dose response curves are constructed using a four-parameter algorithm and from these the IC50 values are determined.

Compound | IC50
CCCc1cc2c(c(Br)c1O)CCO2 [Br CH2 CH3 CH3, 2,3-dihydro4-bromo-6-propyl-5-benzofuranol] | 49 nM
Cc1c(O)c(CCCSc2ccccc2)cc2c1CCO2 [CH3 (CH2)3 SC6 H5, 2,3-dihydro-4-methyl-6-(3-(phenylthio)propyl)5-benzofuranol] | 19 nM
OCCc1cccc(OCCCc2cc3c(cc2O)CCO3)c1 [H (CH2)3 OC6 H4-3-(CH2)2 OH, 2,3-Dihydro-6-(3-(3-(2-hydroxyethyl)-phenoxy)propyl)-5-benzofuranol] | 77 nM
CCCc1ccc(OCCCc2cc3c(cc2O)CCO3)cc1 [H (CH2)3 OC6 H4-4-(CH2)2 CH3, 2,3-dihydro 6-(3-(4-propylphenoxy)propyl)-5-benzofuranol] | 9 nM
OCCc1ccc(OCCCc2cc3c(cc2O)CCO3)cc1 [H (CH2)3 OC6 H4-4-(CH2)2 OH, 2,3-dihydro-6-(3-(4-(2-hydroxyethyl)phenoxy)propyl)-5-benzofuranol] | 41 nM
Oc1cc2c(cc1CCCOc1ccc(Cl)cc1)OCC2 [H (CH2)3 OC6 H4-4-Cl, 2,3-Dihydro-6-(3-(4-chlorophenoxy)propyl)-5-benzofuranol] | 55 nM
Oc1cc2c(cc1CCCOc1ccc(F)cc1)OCC2 [H (CH2)3 OC6 H4-4-F, 2,3-dihydro-6-(3-(4-fluorophenoxy)propyl)5-benzofuranol] | 28 nM
Oc1cc2c(cc1CCCOc1ccccc1)OCC2 [H (CH2)3 OC6 H5, 2,3-dihydro-6-(3-phenoxypropyl)-5-benzofuranol] | 57 nM
Oc1cc2c(cc1CCCSc1ccccc1)OCC2 [H (CH2)3 SC6 H5, 2,3-dihydro-6-(3-(phenylthio)propyl)-5-benzofuranol] | 19 nM
Oc1cc2c(cc1OCCCc1ccccc1)OCC2 [H O(CH2)3 C6 H5, 2,3-dihydro-6-(3-phenylpropoxy)-5-benzofuranol] | 51 nM
COC(=O)c1ccccc1OCCCOc1cc2c(cc1O)CCO2 [H O(CH2)3 OC6 H5-2-CO2 CH3, 2-(3-((2,3-dihydro-5-hydroxy-6-benzofuranyl)oxy)propoxy)benzoic acid methyl ester] | 65 nM

The next lines start with the values.

IC50 | Compound
56 nM | COC(=O)c1cccc(OCCCOc2cc3c(cc2O)CCO3)c1 [H O(CH2)3 OC6 H5-3-CO2 CH3, 3-(3-((2,3-dihydro-5-hydroxy-6-benzofuranyl)oxy)propoxy)benzoic acid methyl ester]
72 nM | COC(=O)Cc1ccc(OCCCOc2cc3c(cc2O)CCO3)cc1 [H O(CH2)3 OC6 H5-4-CH2 CO2 CH3, 4-(3-((2,3-dihydro-5-hydroxy-6-benzofuranyl)oxy)propoxy)benzeneacetic acid methyl ester]
71 nM | COC(=O)c1ccc(OCCCOc2cc3c(cc2O)CCO3)cc1 [H O(CH2)3 OC6 H5-4-CO2 CH3, 4-(3-((2,3-dihydro-5-hydroxy-6-benzofuranyl)oxy)propoxy)benzoic acid methyl ester]
66 nM | Oc1cc2c(cc1SCCc1ccccc1)OCC2 [H S(CH2)2 C6 H5, 2,3-dihydro 6 (2 phenylethyl)thio-5-benzofuranol]
28 nM | Oc1cc2c(cc1SCCCc1ccccc1)OCC2 [H S(CH2)3 C6 H5, 2,3-dihydro-6-(3-phenylpropyl)thio-5-benzofuranol]

Same assay, conditions: Leucocyte, 5 min; standard compounds; human PMN, A23187 10 μM, 5 min at 37° C.; read-out: IC50 values for LTB4 inhibition

IC50 | Compound
86 nM | CC(Cc1ccc(O)c(O)c1)C(C)Cc1ccc(O)c(O)c1 (centres unmarked) [nordihydroguaiacetic acid, reference compound]
9250 nM | O=C1CCN(c2ccccc2)N1 [phenidone, reference compound]

Test system: leukotriene biosynthesis in human polymorphonuclear leukocytes
Test: not given
Conditions: known inhibitors of leukotriene biosynthesis; cited from earlier work

Compound | activity in the human polymorphonuclear leukocytes assay
CC(Cc1ccc(O)c(O)c1)C(C)Cc1ccc(O)c(O)c1 (centres unmarked) [nordihydroguaiacetic acid, reference compound] | active
O=C1CCN(c2ccccc2)N1 [phenidone, reference compound] | active
